Experimental data: ChEMBL document CHEMBL4411303, “Synthesis of tetrazole derivatives bearing pyrrolidine scaffold and evaluation of their antifungal activity against Candida albicans” (Eur J Med Chem, 2019)
Active and inactive are the calls of the source. The calls are words filed in the database; no cut-off is given here.

How the values were obtained:
Candida albicans [1] = experiment: Antifungal activity against Candida albicans ATCC 90028 assessed as planktonic growth inhibition at 1.38 uM after 48 hrs by M27-A3 protocol based method relative to control; format: functional; settings: ATCC 90028, 48 h, read-out: GI
Candida albicans [2] = experiment: Antifungal activity against Candida albicans ATCC 90028 assessed as planktonic growth inhibition at 2.77 uM after 48 hrs by M27-A3 protocol based method relative to control; format: functional; settings: ATCC 90028, 48 h, read-out: GI
Candida albicans [3] = experiment: Antifungal activity against Candida albicans ATCC 90028 assessed as planktonic growth inhibition at 0.09 uM after 48 hrs by M27-A3 protocol based method relative to control; format: functional; settings: ATCC 90028, 48 h, read-out: GI
Candida albicans [4] = experiment: Antifungal activity against Candida albicans ATCC 90028 assessed as planktonic growth inhibition at 0.17 uM after 48 hrs by M27-A3 protocol based method relative to control; format: functional; settings: ATCC 90028, 48 h, read-out: GI
Candida albicans [5] = experiment: Antifungal activity against Candida albicans ATCC 90028 assessed as planktonic growth inhibition at 5.53 uM after 48 hrs by M27-A3 protocol based method relative to control; format: functional; settings: ATCC 90028, 48 h, read-out: GI
Candida albicans [6] = experiment: Antifungal activity against Candida albicans ATCC 90028 assessed as planktonic growth inhibition at 11.07 uM after 48 hrs by M27-A3 protocol based method relative to control; format: functional; settings: ATCC 90028, 48 h, read-out: GI
Candida albicans [7] = experiment: Antifungal activity against Candida albicans ATCC 90028 assessed as planktonic growth inhibition at 22.13 uM after 48 hrs by M27-A3 protocol based method relative to control; format: functional; settings: ATCC 90028, 48 h, read-out: GI
Candida albicans [8] = experiment: Antifungal activity against Candida albicans ATCC 90028 assessed as planktonic growth inhibition at 0.69 uM after 48 hrs by M27-A3 protocol based method relative to control; format: functional; settings: ATCC 90028, 48 h, read-out: GI
Candida albicans [9] = experiment: Antifungal activity against Candida albicans ATCC 90028 assessed as planktonic growth inhibition at 44.26 uM after 48 hrs by M27-A3 protocol based method relative to control; format: functional; settings: ATCC 90028, 48 h, read-out: GI
Candida albicans [10] = experiment: Fungicidal activity against Candida albicans ATCC 90028 assessed as log reduction in fungal load incubated for 48 hrs followed by replating on sabouraud dextrose agar plate and measured after 48 hrs; format: functional
Candida albicans [11] = experiment: Antifungal activity against Candida albicans ATCC 90028 assessed as planktonic growth inhibition at 0.35 uM after 48 hrs by M27-A3 protocol based method relative to control; format: functional; settings: ATCC 90028, 48 h, read-out: GI
Candida albicans [12] = experiment: Antifungal activity against Candida albicans ATCC 90028 assessed as planktonic growth inhibition at 2.74 uM after 48 hrs by M27-A3 protocol based method relative to control; format: functional; settings: ATCC 90028, 48 h, read-out: GI
Candida albicans [13] = experiment: Antifungal activity against Candida albicans ATCC 90028 assessed as planktonic growth inhibition at 10.95 uM after 48 hrs by M27-A3 protocol based method relative to control; format: functional; settings: ATCC 90028, 48 h, read-out: GI
Candida albicans [14] = experiment: Antifungal activity against Candida albicans ATCC 90028 assessed as planktonic growth inhibition at 0.34 uM after 48 hrs by M27-A3 protocol based method relative to control; format: functional; settings: ATCC 90028, 48 h, read-out: GI
Candida albicans [15] = experiment: Antifungal activity against Candida albicans ATCC 90028 assessed as planktonic growth inhibition at 43.78 uM after 48 hrs by M27-A3 protocol based method relative to control; format: functional; settings: ATCC 90028, 48 h, read-out: GI
Candida albicans [16] = experiment: Antifungal activity against Candida albicans ATCC 90028 assessed as planktonic growth inhibition at 0.68 uM after 48 hrs by M27-A3 protocol based method relative to control; format: functional; settings: ATCC 90028, 48 h, read-out: GI
Candida albicans [17] = experiment: Antifungal activity against Candida albicans ATCC 90028 assessed as planktonic growth inhibition at 1.37 uM after 48 hrs by M27-A3 protocol based method relative to control; format: functional; settings: ATCC 90028, 48 h, read-out: GI
Candida albicans [18] = experiment: Antifungal activity against Candida albicans ATCC 90028 assessed as planktonic growth inhibition at 21.89 uM after 48 hrs by M27-A3 protocol based method relative to control; format: functional; settings: ATCC 90028, 48 h, read-out: GI
Candida albicans [19] = experiment: Antifungal activity against Candida albicans ATCC 90028 assessed as planktonic growth inhibition at 5.47 uM after 48 hrs by M27-A3 protocol based method relative to control; format: functional; settings: ATCC 90028, 48 h, read-out: GI
Candida albicans [20] = experiment: Antifungal activity against Candida albicans ATCC 90028 assessed as planktonic growth inhibition at 0.36 uM after 48 hrs by M27-A3 protocol based method relative to control; format: functional; settings: ATCC 90028, 48 h, read-out: GI
Candida albicans [21] = experiment: Antifungal activity against Candida albicans ATCC 90028 assessed as planktonic growth inhibition at 2.85 uM after 48 hrs by M27-A3 protocol based method relative to control; format: functional; settings: ATCC 90028, 48 h, read-out: GI
Candida albicans [22] = experiment: Cell cycle arrest in Candida albicans ATCC 90028 assessed as accumulation at G0/G1-phase by propidium iodide staining based flow cytometry; format: functional, organism-based
Candida albicans [23] = experiment: Antifungal activity against Candida albicans ATCC 90028 assessed as planktonic growth inhibition at 0.18 uM after 48 hrs by M27-A3 protocol based method relative to control; format: functional; settings: ATCC 90028, 48 h, read-out: GI
Candida albicans [24] = experiment: Antifungal activity against Candida albicans ATCC 90028 infected in Galleria mellonella larvae assessed as induction of pathogen entrapping by haemocytes at 10 uL measured at 24 hrs interval for 144 hrs by HE staining based microscopic analysis; format: functional, organism-based
Candida albicans [25] = experiment: Antifungal activity against Candida albicans ATCC 90028 assessed as planktonic growth inhibition at 22.76 uM after 48 hrs by M27-A3 protocol based method relative to control; format: functional; settings: ATCC 90028, 48 h, read-out: GI
Candida albicans [26] = experiment: Antifungal activity against Candida albicans ATCC 90028 assessed as planktonic growth inhibition at 5.69 uM after 48 hrs by M27-A3 protocol based method relative to control; format: functional; settings: ATCC 90028, 48 h, read-out: GI
Candida albicans [27] = experiment: Antifungal activity against Candida albicans ATCC 90028 infected in Galleria mellonella larvae assessed as inhibition of fungus filamentation at 10 uL measured at 24 hrs interval for 144 hrs by HE staining based microscopic analysis; format: functional, organism-based
Candida albicans [28] = experiment: Antifungal activity against Candida albicans ATCC 90028 assessed as planktonic growth inhibition at 0.71 uM after 48 hrs by M27-A3 protocol based method relative to control; format: functional; settings: ATCC 90028, 48 h, read-out: GI
Candida albicans [29] = experiment: Antifungal activity against Candida albicans ATCC 90028 assessed as planktonic growth inhibition at 45.53 uM after 48 hrs by M27-A3 protocol based method relative to control; format: functional; settings: ATCC 90028, 48 h, read-out: GI
Candida albicans [30] = experiment: Antifungal activity against Candida albicans ATCC 90028 assessed as planktonic growth inhibition at 11.38 uM after 48 hrs by M27-A3 protocol based method relative to control; format: functional; settings: ATCC 90028, 48 h, read-out: GI
Candida albicans [31] = experiment: Antifungal activity against Candida albicans ATCC 90028 assessed as planktonic growth inhibition at 1.42 uM after 48 hrs by M27-A3 protocol based method relative to control; format: functional; settings: ATCC 90028, 48 h, read-out: GI

Work on `Cc1ccc(-c2nnn(CCCN3CCCC3c3ccc(C)cc3)n2)cc1` (stereo unspecified) yielded an inhibition of growth at 1.38 µM (Candida albicans [1]) of 99%, an inhibition of growth at 2.77 µM (Candida albicans [2]) of 99% and an inhibition of growth at 0.09 µM (Candida albicans [3]) of 99%. The inhibition of growth at 0.17 µM (Candida albicans [4]) was 99.3%, the inhibition of growth at 5.53 µM (Candida albicans [5]) was 99.3% and the inhibition of growth at 11.07 µM (Candida albicans [6]) was 98.9%. For the same molecule, the inhibition of growth at 22.13 µM (Candida albicans [7]) was 99.3%, the inhibition of growth at 0.69 µM (Candida albicans [8]) was 99.2% and the inhibition of growth at 44.26 µM (Candida albicans [9]) was 99.6%. The “log(activity)” value (Candida albicans [10]) was -0.6 and the inhibition of growth at 0.35 µM (Candida albicans [11]) was 99.1%.
`Cc1ccc(-c2nnn(CCCN3CCCC3c3ccc(F)cc3)n2)cc1` (stereo unspecified) was tested, and the inhibition of growth at 0.09 µM (Candida albicans [3]) was 99.1%, the inhibition of growth at 0.17 µM (Candida albicans [4]) was 99.1% and the inhibition of growth at 2.74 µM (Candida albicans [12]) was 99.2%. For the same molecule, the inhibition of growth at 10.95 µM (Candida albicans [13]) was 99.4%, the inhibition of growth at 0.34 µM (Candida albicans [14]) was 99.2% and the inhibition of growth at 43.78 µM (Candida albicans [15]) was 98.9%. For the same molecule, the inhibition of growth at 0.68 µM (Candida albicans [16]) was 99.1%, the inhibition of growth at 1.37 µM (Candida albicans [17]) was 99.2% and the “log(activity)” value (Candida albicans [10]) was -0.3. For the same molecule, the inhibition of growth at 21.89 µM (Candida albicans [18]) was 98.7% and the inhibition of growth at 5.47 µM (Candida albicans [19]) was 99%.
In the case of `Fc1ccc(C2CCCN2CCCn2nnc(-c3ccccc3)n2)cc1` (stereo unspecified), the inhibition of growth at 0.09 µM (Candida albicans [3]) is reported as 99.2%, the inhibition of growth at 0.36 µM (Candida albicans [20]) is reported as 99.2% and the inhibition of growth at 2.85 µM (Candida albicans [21]) is reported as 99.3%. For the same molecule, the Activity (Candida albicans [22]) was “Active”, the inhibition of growth at 0.18 µM (Candida albicans [23]) was 99.2% and the Activity (Candida albicans [24]) was “Active”. The inhibition of growth at 22.76 µM (Candida albicans [25]) was 99.2%, the inhibition of growth at 5.69 µM (Candida albicans [26]) was 99.3% and the inhibition (Candida albicans [27]) was “Active”. For the same molecule, the “log(activity)” value (Candida albicans [10]) was -0.5, the inhibition of growth at 0.71 µM (Candida albicans [28]) was 99.3% and the inhibition of growth at 45.53 µM (Candida albicans [29]) was 99.5%. It also gave an inhibition of growth at 11.38 µM (Candida albicans [30]) of 99.3% and an inhibition of growth at 1.42 µM (Candida albicans [31]) of 99.5%.
